Common to all, as to format: physicochemical
A short description of data set [1]: Solubility study, visually estimated by dosing solvent aliquots into 10.0 mg API. Particulars: thermodynamic from solid. The procedure:
Solubility was assessed in an array of diverse solvents in order to facilitate the selection of solvent systems and corresponding dosing strategies for the subsequent crystal-form screening experiments. The solubility of Form A of Formula (I) was visually estimated in 12 solvents at RT, and if applicable, at 40° C. by dosing small aliquots of the solvent into a fixed amount of the API (10.0 mg) until the dissolution point or a maximum volume of 1.8 mL was reached.

Data set [2] is described as follows: Relative stability (ripening) study of crystal forms at various water activity levels. The procedure:
Relative stability studies were conducted at 25° C. to determine thermodynamic crystal stability at various water activity levels ranging from aw=0 to aw=0.94. Both non-solvated forms (Forms A and D) and hydrate forms (Form C and E) were ripened during the study.
Saturated suspensions of the Formula (I) were prepared by stirring excess API in the specified solvent system. The suspension was stirred overnight at 25° C. A clarifying filtration was performed and the filtrate was added to a 2 mL vial containing seeds or small quantities of the relevant forms. The resulting suspensions were stirred at 25° C. for seven days. The solids were isolated, air-dried for 45 minutes, and analyzed by FTIR.

The nature of data set [3]: Particle size distribution after jet milling, laser diffraction dry particle size analyzer. The settings on record: crystalline Form A after fluidized bed opposed jet milling. As for the experimental part:
21.98 kg of crystalline Form A Formula (I) was processed in a fluidized bed opposed jet mill (Model number 100AFG; Hosokawa Micron) at a feed rate of 8 kg/h under nitrogen at 0.6 MPa and 15,000 rpm. After milling, 20.9 kg ([…]) was collected and analyzed by laser diffraction dry particle size analyzer (HELOS&RODOS).

Like-named read-outs stand apart in the source and are kept apart here. Some results are limits rather than exact numbers.

For `O=C(O)c1nc2ccccc2n([C@H]2C[C@H]3CCC[C@@H](C2)N3C2CC3CCCC(C3)C2)c1=O` (stereo partly shown) [Form A], the solubility in data set [1] (organic solvent or mixture, DCM, 40° C., read-out: Solubility at 40° C.) is below 6000 µg/mL; in data set [1] (organic solvent or mixture, DCM, RT, read-out: Solubility at RT), below 6000 µg/mL; in data set [1] (organic solvent or mixture, EtOAc, 40° C., read-out: Solubility at 40° C.), below 6000 µg/mL; in data set [1] (organic solvent or mixture, EtOAc, RT, read-out: Solubility at RT) it was below 6000 µg/mL; in data set [1] (organic solvent or mixture, IPA, 40° C., read-out: Solubility at 40° C.) it was below 6000 µg/mL; in data set [1] (organic solvent or mixture, IPA, RT, read-out: Solubility at RT) it was below 6000 µg/mL. Further, the solubility in data set [1] (organic solvent or mixture, IPA:water (9:1), 40° C., read-out: Solubility at 40° C.) was below 6000 µg/mL; in data set [1] (organic solvent or mixture, IPA:water (9:1), RT, read-out: Solubility at RT) it was below 6000 µg/mL; in data set [1] (organic solvent or mixture, IPE, 40° C., read-out: Solubility at 40° C.), below 6000 µg/mL; in data set [1] (organic solvent or mixture, IPE, RT, read-out: Solubility at RT) it was below 6000 µg/mL; in data set [1] (organic solvent or mixture, MTBE, 40° C., read-out: Solubility at 40° C.), below 6000 µg/mL; in data set [1] (organic solvent or mixture, MTBE, RT, read-out: Solubility at RT), below 6000 µg/mL. Further, the solubility in data set [1] (organic solvent or mixture, MeCN, 40° C., read-out: Solubility at 40° C.) is below 6000 µg/mL; in data set [1] (organic solvent or mixture, MeCN, RT, read-out: Solubility at RT) it was below 6000 µg/mL; in data set [1] (organic solvent or mixture, MeOH, 40° C., read-out: Solubility at 40° C.), below 7000 µg/mL; in data set [1] (organic solvent or mixture, MeOH, RT, read-out: Solubility at RT) it was below 7000 µg/mL; in data set [1] (organic solvent or mixture, THF, 40° C., read-out: Solubility at 40° C.), below 6000 µg/mL; in data set [1] (organic solvent or mixture, THF, RT, read-out: Solubility at RT), below 6000 µg/mL. Besides, the solubility was below 7000 µg/mL in data set [1] (organic solvent or mixture, Toluene, 40° C., read-out: Solubility at 40° C.); below 7000 µg/mL in data set [1] (organic solvent or mixture, Toluene, RT, read-out: Solubility at RT); below 6000 µg/mL in data set [1] (Water, 40° C., read-out: Solubility at 40° C.); below 6000 µg/mL in data set [1] (Water, RT, read-out: Solubility at RT). Besides, in data set [2] (all solvent systems, 25° C., seven days, FTIR), the “Crystal form remaining after the ripening study” value is “the only crystal form remaining”. Besides, in data set [2] (confirmed in ripening studies), the “Relative stability among crystalline forms of Formula (I)” value was “the most stable crystalline form”.
For `O=C(O)c1nc2ccccc2n([C@H]2C[C@H]3CCC[C@@H](C2)N3C2CC3CCCC(C3)C2)c1=O` (stereo partly shown) [Formula (I)], the solubility in data set [1] (all solvents of Table 3 other than DMSO, organic solvent or mixture, read-out: Solubility (low) in all other solvents evaluated) was at most 7000 µg/mL. The solubility in data set [1] (organic solvent or mixture, DMSO, RT, read-out: Solubility at RT) is 21000 to 52000 µg/mL. Also, in data set [3], the D10 was found to be 0.63 μm, the D30 is listed as 1.36 μm, the D50 was determined as 2.29 μm and the D70 stood at 3.57 μm. This compound displayed a D90 in data set [3] of 5.8 μm.

The record behind these values is patent US12371427B2, “Polymorphic forms of a substituted-quinoxaline-type bridged-piperidine compound” (Purdue Pharma L.P., priority 2019, dated 2025).
